PubChem BioAssay (NCI)
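All cell lines were grown in 96-well plates and treated with compound for 48 hours. GI50 marks 50% less growth. TGI is the concentration that stops growth completely.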

How the values were obtained:
Experiment in all cases: NCI tumour cell line growth inhibition, 48 h
DLD-1 colon = system: DLD-1 colon
DMS 114 small cell lung = system: DMS 114 small cell lung
HL-60(TB) leukemia = system: HL-60(TB) leukemia
KM20L2 colon = system: KM20L2 colon
LXFL 529 NSCLC = system: LXFL 529 NSCLC
M19-MEL melanoma = system: M19-MEL melanoma
SNB-78 CNS = system: SNB-78 CNS
SR leukemia = system: SR leukemia
786-0 renal = system: 786-0 renal
BT-549 breast = system: BT-549 breast
DU-145 prostate = system: DU-145 prostate
MDA-MB-435 = system: MDA-MB-435
PC-3 prostate = system: PC-3 prostate
HOP-18 NSCLC = system: HOP-18 NSCLC
XF 498 CNS = system: XF 498 CNS
P388/ADR leukemia = system: P388/ADR leukemia
SN12K1 renal = system: SN12K1 renal

Row | SMILES | TGI (DLD-1 colon) | TGI (DMS 114 small cell lung) | TGI (HL-60(TB) leukemia) | TGI (KM20L2 colon) | TGI (LXFL 529 NSCLC) | TGI (M19-MEL melanoma) | TGI (SNB-78 CNS) | TGI (SR leukemia) | TGI (786-0 renal) | TGI (BT-549 breast) | TGI (DU-145 prostate) | TGI (MDA-MB-435) | TGI (PC-3 prostate) | TGI (HOP-18 NSCLC) | TGI (XF 498 CNS) | GI50 (BT-549 breast) | GI50 (DU-145 prostate) | GI50 (MDA-MB-435) | TGI (P388/ADR leukemia) | TGI (SN12K1 renal)
1 | O=c1ccc2nc3cc(Br)ccc3sc-2c1 | > 100 µM | > 100 µM | 37.5 µM | > 100 µM | > 100 µM | > 100 µM | > 100 µM | > 100 µM | – | – | – | – | – | – | – | – | – | – | – | –
2 | C[N+]1(CCC(=O)c2ccco2)CC2CCC(CC2)C1 (configuration not stated) | – | – | – | – | – | – | – | > 100 µM | > 100 µM | > 100 µM | > 100 µM | > 100 µM | > 100 µM | – | – | – | – | – | – | –
3 | Nc1c(C(=O)O)nnc2cc(Cl)c(Cl)cc12 | – | – | > 100 µM | – | – | – | – | > 100 µM | > 100 µM | > 100 µM | > 100 µM | > 100 µM | > 100 µM | – | – | – | – | – | – | –
4 | COc1ccc(C(=O)C2=NON3OC23C(=O)c2ccc(OC)cc2)cc1 (configuration not stated) | 21.5 µM | 11.1 µM | – | 35.5 µM | 6.68 µM | 32.8 µM | 42.3 µM | – | 10.6 µM | – | – | – | – | 33.7 µM | 23.9 µM | – | – | – | – | –
5 | CN(C)c1ccc(C=Nc2ccc(Oc3ccc(Cl)cc3)c(Cl)c2)cc1 | – | – | 40.1 µM | – | – | – | – | 32.9 µM | – | 44.1 µM | 79 µM | > 100 µM | 36.2 µM | – | – | – | – | – | – | –
6 | COCC1CCCN1c1ccc(C=N/C(C#N)=C(\N)C#N)cc1 (configuration not stated) | – | – | – | – | – | – | – | – | – | > 100 µM | > 100 µM | > 100 µM | – | – | – | 98.9 µM | 6.25 µM | > 100 µM | – | –
7 | Cn1c(=O)[nH]c2nncnc2c1=O | > 625 µM | 345 µM | 55.2 µM | > 306 µM | – | 115 µM | > 625 µM | – | – | – | – | – | – | 61.1 µM | 245 µM | – | – | – | > 625 µM | > 625 µM
8 | Cn1cnc([N+](=O)[O-])c1Sc1nc(N)nc2c1ncn2C1OC(CO)C(O)C1O (configuration not stated) | > 100 µM | > 100 µM | 28.4 µM | 28.8 µM | > 100 µM | > 100 µM | > 100 µM | > 35.6 µM | > 100 µM | > 100 µM | 66.4 µM | 29.7 µM | > 100 µM | > 100 µM | > 100 µM | – | – | – | – | –
9 | COc1cc2oc(=O)ccc2cc1C(=O)CC(C)C | – | – | > 100 µM | – | – | – | – | > 100 µM | > 100 µM | > 100 µM | > 100 µM | > 100 µM | > 100 µM | – | – | – | – | – | – | –
10 | Cc1coc2c1C[C@@]1(C)[C@H](CCC[C@@H]1C)[C@H]2O | – | – | 44.6 µM | – | – | – | – | 64.8 µM | – | – | 56.3 µM | 92.1 µM | > 100 µM | – | – | – | – | – | – | –
11 | Nc1ncnc2c1sc1nc3ccccc3n12 | – | – | – | – | – | – | – | – | – | > 100 µM | > 100 µM | > 100 µM | > 100 µM | – | – | – | – | – | – | –
12 | O=c1[nH]c(Nc2ccc(Cl)c(C(F)(F)F)c2)nc2nc[nH]c12 | – | – | – | – | – | – | – | – | 74.8 µM | > 100 µM | > 100 µM | > 100 µM | > 100 µM | – | – | – | – | – | – | –
13 | N#CC12Cc3cc4c(cc3-c3cccc(c31)CCN2C(=O)c1ccccc1)OCO4 (configuration not stated) | > 100 µM | > 100 µM | > 100 µM | > 100 µM | > 100 µM | > 100 µM | > 100 µM | > 100 µM | – | – | – | – | – | > 100 µM | > 100 µM | – | – | – | – | –
14 | OCc1cn(C(c2ccccc2)(c2ccccc2)c2ccccc2)cn1 | – | – | > 100 µM | – | – | – | – | > 100 µM | – | – | > 100 µM | > 100 µM | > 100 µM | – | – | – | – | – | – | –
15 | COc1ccc2nc3c(C(=O)NCCN(C)C)cccc3cc2c1 | – | 4.48 µM | 4.64 µM | 4.36 µM | – | – | 18.3 µM | – | – | – | – | – | – | > 100 µM | 4.01 µM | – | – | – | 3.05 µM | 3.27 µM
16 | CC(C)(C)OC(=O)NC(CCCCNC(=O)OCc1ccccc1)C(=O)NCCNc1ccc(NCCNC(=O)C(CCCCNC(=O)OCc2ccccc2)NC(=O)OC(C)(C)C)c2c1C(=O)c1ccccc1C2=O (configuration not stated) | – | – | – | – | – | – | – | > 100 µM | > 100 µM | > 100 µM | > 100 µM | > 100 µM | > 100 µM | – | – | – | – | – | – | –
